Results: publication PMC3448668, “Insulin-Like Growth Factor-I E-Peptide Activity Is Dependent on the IGF-I Receptor” (PLoS ONE, 2012)

What was measured:
Type in all cases: cell-based, mouse
C2C12 cells [1] = assay: Transwell cell migration assay; conditions: C2C12 trans-well, 5 hours, PD 50 µM, NVP 100 nM; for Effect of inhibitor on EB induced migration: EB 100 nM
Protocol: E-peptide effects on cell migration were tested using a 24-well Transwell (8.0 µm pore size) plate assay (Corning Inc., Lowell, MA). C2C12 cells (2×10^4) were seeded in the upper chambers in serum-free media, and synthetic E-peptides in serum-free media were placed in the bottom chambers. Cells were allowed to migrate for 5 hours. Non-migrated cells remaining in the upper chamber were removed from the transwell membranes with Q-tips and migrated cells were fixed with 4% formaldehyde and stained with DAPI. The transwell membranes were mounted onto slides, and imaged at 10× using above-mentioned microscopy and analysis software. For MAPK signaling or IGF-IR inhibition, PD (50 µM) or NVP (100 nM) was added to both chambers at the start of the experiment.

C2C12 cells [2] = assay: BrdU cell proliferation assay (plate and slide); conditions: for Effect of inhibitor on IGF-I induced proliferation: C2C12 BrdU plate assay, IGF-I 10 nM, PD 50 µM, NVP 100 nM
Protocol: Proliferation was measured using a 5-bromo-2P-deoxyuridine (BrdU) plate and slide assays (Roche, Indianapolis, IN). For the plate assay, 5×10^3 C2C12 cells were seeded in 96-well plates. Cells were starved for 6 hours, and treated with synthetic E-peptides or recombinant IGF-I overnight. BrdU was added for incorporation for 2 hours before cell lysis and BrdU staining. For MAPK inhibition, a MEK inhibitor was added to the media (PD 098059, Sigma, 50 µM). For IGF-IR inhibition, 100 nM NVPAEW541 was added to the media. The slide assay was done as above, except with 2×10^4 C2C12 cells in 24-well plates on glass cover slips. Cells were stained with an antibody to BrdU and with DAPI (VectorLabs, Burlingame, CA) to visualize nuclei. Images were acquired using a Leica DMR epifluorescence microscope using OpenLab imaging software (Improvision, PerkinElmer, Waltham, MA).

[3] = system: ERK1/2 phosphorylation (MAPK signaling) in C2C12 cells; assay: ERK1/2 phosphorylation immunoblot after synthetic E-peptide treatment
Protocol: (§1) C2C12 (ATCC, Manassas, VA) cells were maintained in growth media (DMEM containing, 10% fetal bovine serum, and gentamicin). For signaling experiments, 2×10^4 cells were seeded in 6-well plates in growth media and allowed to attach and grow overnight. The next day, cells were starved overnight in growth media without serum. On the third day, cells were treated with synthetic E-peptides and/or recombinant human IGF-I (Gemini Bio-Products West Sacramento, CA) for the time periods indicated in figures, and the cells were processed for immunoblotting as described below. For IGF-IR inhibition, 100 nM NVPAEW541 [47] diluted in DMSO or DMSO only was added to starved cells 90 minutes before and during treatment with synthetic peptides.
(§2) Signaling pathway activation was determined by immunoblotting.

[4] = system: Akt phosphorylation in C2C12 cells; assay: Akt phosphorylation immunoblot; conditions: C2C12, 20 min; EA 1 µM, EB 10 nM, IGF-I 10 nM
Protocol: as §1, §2

Molecule | Effect of inhibitor on EB induced migration (C2C12 cells [1]) | Effect of inhibitor on cell migration in the absence of E-peptides (C2C12 cells [1]) | Effect of inhibitor on IGF-I induced proliferation (C2C12 cells [2]) | P-ERK1/2 response (in words), without inhibitor ([3]; C2C12, 20 min, EA 1 µM, EB 10 nM, IGF-I 10 nM, DMSO) | P-Akt response (in words) [4] | Proliferation by BrdU positivity on slides (in words) (C2C12 cells [2]; C2C12 on cover slips, EA and Scr 100 nM, EB and IGF 10 nM, N = 5 slides) | Effect of IGF-IR inhibitor on ERK1/2 phosphorylation in EA, EB and IGF-I treated cells ([3]; C2C12, NVP 100 nM 90 min before and during 20 min stimulation, EA 1 µM, EB 10 nM, IGF-I 10 nM, vs DMSO, N = 3) | Effect of IGF-IR inhibitor on ERK1/2 phosphorylation in NoTx cells ([3]; C2C12, NVP 100 nM vs DMSO, no stimulation)
COc1cccc(-c2cc(=O)c3ccccc3o2)c1N [PD, PD 098059] | decrease in EB migration that did not reach significance | not affected | significantly decreased IGF-I induced proliferation | – | – | – | – | –
IGF-I: recombinant human IGF-I (Gemini Bio-Products), positive control | – | – | – | increase in both P-Akt and P-ERK1/2 | increase in both P-Akt and P-ERK1/2 | increased C2C12 proliferation | – | –
Nc1ncnc2c1c(-c1cccc(OCc3ccccc3)c1)cn2[C@H]1C[C@@H](CN2CCC2)C1 [NVP, NVPAEW541] | significantly decreased EB induced migration | not affected | significantly decreased IGF-I induced proliferation | – | – | – | significantly reduced the ERK1/2 phosphorylation | no change in ERK1/2 phosphorylation
